Assay results reported in PMC6556873, “Rapid Covalent-Probe Discovery by Electrophile-Fragment Screening” (Journal of the American Chemical Society, 2019).
Like-named read-outs stand apart in the source and are kept apart here.

Assays:
[1] = in vitro; parameters: species or system HB2, CCD841; conditions: human, hek293 cells
[2] = biological target: T1, NUDT7 (Homo sapiens, UniProt P0C024); parameters: Intact protein LC/MS covalent labelling, fragments in pools of five, 200 uM each, 4 °C; conditions: 24 h, 4 °C, pool of five; 200 µM; covalent
T1 construct: residues 14-235, E. coli, pNIC28-Bsa4, N-terminal His6 tag removed by TEV, construct 26672 Da

[3] = biological target: T2, OTUB2 (OTUB2A) (Homo sapiens, UniProt Q96DC9); parameters: Intact protein LC/MS covalent labelling, fragments in pools of five, 200 uM each, 4 °C; conditions: 24 h, 4 °C, pool of five; 200 µM; covalent
T2 construct: full length residues 1-234, E. coli BL21(DE3)-R3, His tag removed by TEV, construct 27312 Da
T2 sequence (Q96DC9 1-234): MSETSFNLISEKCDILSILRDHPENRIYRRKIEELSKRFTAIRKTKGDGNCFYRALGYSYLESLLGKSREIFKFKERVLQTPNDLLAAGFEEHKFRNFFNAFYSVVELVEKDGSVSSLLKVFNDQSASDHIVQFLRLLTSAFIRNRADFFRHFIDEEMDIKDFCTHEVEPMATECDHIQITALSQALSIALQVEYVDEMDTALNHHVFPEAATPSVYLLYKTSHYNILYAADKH

[4] = biological target: T3, NNMT (hNNMT) (Homo sapiens, UniProt P40261); parameters: Intact protein LC/MS covalent labelling, fragments in pools of five, 200 uM each, 4 °C; conditions: 24 h, 4 °C, pool of five; 200 µM; covalent
T3 construct: wild type, N-terminal His6 tag kept (no cleavage described), E. coli, construct 31248 Da
T3 sequence (P40261 1-264): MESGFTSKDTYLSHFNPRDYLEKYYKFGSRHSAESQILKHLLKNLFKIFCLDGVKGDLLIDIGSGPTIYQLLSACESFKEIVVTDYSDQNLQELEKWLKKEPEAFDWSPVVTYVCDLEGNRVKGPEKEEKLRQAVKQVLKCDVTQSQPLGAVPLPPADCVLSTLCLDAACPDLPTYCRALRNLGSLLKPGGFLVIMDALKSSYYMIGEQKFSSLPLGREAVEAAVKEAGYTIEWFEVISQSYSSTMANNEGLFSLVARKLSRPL

[5] = biological target: T4, PCAF (Homo sapiens, UniProt Q92831); parameters: Intact protein LC/MS covalent labelling, fragments in pools of five, 200 uM each, 4 °C; conditions: 24 h, 4 °C, pool of five; 200 µM; covalent
T4 construct: gene KAT2B

[6] = biological target: T5, BSA (Bos taurus, UniProt P02769); parameters: Intact protein LC/MS covalent labelling, fragments in pools of five, 200 uM each, 4 °C; conditions: 24 h, 4 °C, pool of five; 200 µM; covalent
T5 construct: gene ALB

[7] = in vitro; parameters: species or system CCD841, HEK293; conditions: human, hb2 cells, read-out: HB-2 Cells Viability (%)
[8] = in vitro; parameters: species or system HB2, HEK293; conditions: human, ccd841 cells

T5 sequence (P02769 whole entry, the tested form may be a part): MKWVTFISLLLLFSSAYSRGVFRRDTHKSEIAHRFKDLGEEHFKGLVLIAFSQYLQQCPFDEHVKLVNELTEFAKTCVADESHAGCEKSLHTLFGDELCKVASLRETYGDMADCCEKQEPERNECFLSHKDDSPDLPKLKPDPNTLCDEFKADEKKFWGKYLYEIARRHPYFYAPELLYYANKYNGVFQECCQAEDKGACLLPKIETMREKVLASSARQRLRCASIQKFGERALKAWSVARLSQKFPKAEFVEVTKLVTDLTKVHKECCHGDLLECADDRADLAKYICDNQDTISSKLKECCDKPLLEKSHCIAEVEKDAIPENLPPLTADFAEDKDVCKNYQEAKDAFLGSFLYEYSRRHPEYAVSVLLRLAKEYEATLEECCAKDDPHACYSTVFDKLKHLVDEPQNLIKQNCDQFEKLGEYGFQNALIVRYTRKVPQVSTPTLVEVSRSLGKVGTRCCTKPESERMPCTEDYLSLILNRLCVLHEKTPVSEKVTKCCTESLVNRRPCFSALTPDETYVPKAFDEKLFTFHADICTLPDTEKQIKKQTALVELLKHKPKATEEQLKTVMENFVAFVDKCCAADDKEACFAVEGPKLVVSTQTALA
T1 sequence (P0C024 14-235): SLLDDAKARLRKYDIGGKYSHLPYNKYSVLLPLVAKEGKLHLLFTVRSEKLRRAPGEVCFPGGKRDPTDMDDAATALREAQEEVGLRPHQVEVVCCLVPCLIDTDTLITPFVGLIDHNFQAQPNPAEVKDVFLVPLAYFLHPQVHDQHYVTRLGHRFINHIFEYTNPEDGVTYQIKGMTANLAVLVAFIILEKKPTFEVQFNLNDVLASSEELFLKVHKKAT
T4 sequence (Q92831 whole entry, the tested form may be a part): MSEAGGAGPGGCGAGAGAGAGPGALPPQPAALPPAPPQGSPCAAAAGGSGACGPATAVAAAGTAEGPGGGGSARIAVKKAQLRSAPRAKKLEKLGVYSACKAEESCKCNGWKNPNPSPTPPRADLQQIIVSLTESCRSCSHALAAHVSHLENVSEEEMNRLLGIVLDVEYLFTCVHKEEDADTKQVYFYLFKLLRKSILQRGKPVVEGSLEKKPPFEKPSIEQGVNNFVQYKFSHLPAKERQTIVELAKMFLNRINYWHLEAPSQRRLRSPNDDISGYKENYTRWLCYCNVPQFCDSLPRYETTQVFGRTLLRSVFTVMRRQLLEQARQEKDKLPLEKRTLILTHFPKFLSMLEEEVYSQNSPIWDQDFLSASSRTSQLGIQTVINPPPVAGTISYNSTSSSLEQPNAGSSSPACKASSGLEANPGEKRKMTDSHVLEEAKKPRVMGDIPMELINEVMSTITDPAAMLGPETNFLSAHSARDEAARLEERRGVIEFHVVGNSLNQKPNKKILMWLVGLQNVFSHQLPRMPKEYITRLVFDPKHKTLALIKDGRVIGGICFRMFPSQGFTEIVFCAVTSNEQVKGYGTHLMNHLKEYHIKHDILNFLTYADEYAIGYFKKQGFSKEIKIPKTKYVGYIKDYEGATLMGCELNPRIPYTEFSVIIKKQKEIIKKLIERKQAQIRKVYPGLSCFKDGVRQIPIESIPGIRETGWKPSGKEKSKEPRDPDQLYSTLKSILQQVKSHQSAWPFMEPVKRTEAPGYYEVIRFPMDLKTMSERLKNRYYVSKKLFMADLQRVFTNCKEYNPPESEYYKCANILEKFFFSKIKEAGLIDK

Row | Compound | NUDT7 [2] | OTUB2 [3] | NNMT [4] | PCAF [5] | BSA [6] | viability at 48 h, 10 µM [1] [%] | viability at 48 h, 10 µM [7] [%] | viability at 48 h, 10 µM [8] [%]
1 | C=CC(=O)N1CCCC(c2nncn2C2CC2)C1 (centres unmarked) [PCM-0102567] | 0 | 0 | 0 | 0 | 0 | 113 | 102 | 112
2 | C=CC(=O)NCC1CCC2(CCOCC2)C1O (centres unmarked) [PCM-0102569] | 0.11 | 0 | 0.36 | 0 | 0 | 84.7 | 110 | 110
3 | C=CC(=O)N1CCCC1C1COCCC1(C)O (centres unmarked) [PCM-0102571] | 0 | 0 | 0 | 0 | 0 | 104 | 107 | 107
4 | C=CC(=O)Nc1cccc(C(F)(F)F)c1 [PCM-0102573] | 0 | 0 | 0 | 0 | 0 | 108 | 103 | 105
5 | COc1ccccc1C(=O)NC(=O)CCl [PCM-0102574] | 0 | 0 | 0 | 0 | 0 | 118 | 104 | 127
6 | C=CC(=O)N1CCN(C(=O)Nc2ccc(C)c(Cl)c2)CC1 [PCM-0102604] | 0 | 0 | 0 | 0 | 0 | 91.5 | 74.6 | 122
7 | C=CC(=O)N1CCn2nc(C)nc2C1 [PCM-0102605] | 0 | 0 | 0 | 0 | 0 | 88.4 | 102 | 104
8 | C=CC(=O)NC1(C(N)=O)CCCOC1 (centres unmarked) [PCM-0102608] | 0 | 0 | 0 | 0 | 0 | 118 | 107 | 107
9 | C=CC(=O)N1CCCCC1c1ccc(C(=O)NC)n1C (centres unmarked) [PCM-0102610] | 0 | 0 | 0.14 | 0 | 0 | 99.3 | 106 | 112
10 | C=CC(=O)N1CC(C)(C)C1c1cccs1 (centres unmarked) [PCM-0102611] | 0 | 0 | 0 | 0 | 0 | 71.3 | 107 | 95.8
11 | C=CC(=O)N1CCC(C(=O)[O-])CC1.[Na+] [PCM-0102613] | 0 | 0 | 0 | 0 | 0 | 114 | 98.2 | 125
12 | CC1CCCC(C)N1C(=O)CCl (centres unmarked) [PCM-0102616] | 0 | 0 | 0.2 | 0 | 0 | 57.9 | 71 | 88.1
13 | CCc1cccc(C)c1NC(=O)CCl [PCM-0102618] | 0.11 | 0 | 0 | 0 | 0 | 101 | 98.3 | 106

Continued, in another order:

Row | NUDT7 [2] | OTUB2 [3] | NNMT [4] | PCAF [5] | BSA [6] | Compound | viability at 48 h, 10 µM [1] [%] | viability at 48 h, 10 µM [7] [%] | viability at 48 h, 10 µM [8] [%]
14 | 0 | 0 | 0.16 | 0 | 0 | C=CC(=O)N1CCC(NC(=O)OC(C)(C)C)CC1 [PCM-0102617] | 94.2 | 104 | 105
15 | 0.11 | 0 | 0.71 | 0 | 0 | Cc1ccc(NC(=O)NC(=O)CCl)cc1 [PCM-0102623] | 80.6 | 69.1 | 82.5
16 | 0 | 0 | 0 | 0 | 0 | CC(C)C(C)(C#N)NC(=O)CCl (centres unmarked) [PCM-0102626] | 89.9 | 96.4 | 82.1
17 | 0 | 0.14 | 0 | 0 | 0 | CN(C)C(=O)CN(C)C(=O)CCl [PCM-0102632] | 89.7 | 102 | 114
18 | 0 | 0 | 0 | 0 | 0 | C=CC(=O)NC1(c2nnc3n2CCCC3)CCC1 [PCM-0102639] | 123 | 101 | 131
19 | 0 | 0 | 0 | 0 | 0 | C=CC(=O)N1CCc2sccc2C1c1cccs1 (centres unmarked) [PCM-0102640] | 98.7 | 97.9 | 115
20 | 0 | 0 | 0 | 0 | 0 | C=CC(=O)N1CCC(CS(C)(=O)=O)CC1 [PCM-0102651] | 100 | 105 | 108
21 | 0.12 | 0.24 | 0.83 | 0 | 0 | COc1ccc(NC(=O)CCl)cc1Cl [PCM-0102652] | 2.6 | 10 | 29.3
22 | 0 | 0 | 0 | 0 | 0 | Cl.O=C(CCl)Nc1cccnc1 [PCM-0102653] | 93.3 | 84.6 | 85.6
23 | 0 | 0 | 0.17 | 0 | 0 | O=C(CCl)N1CCC(C(=O)N2CCCC2)CC1 [PCM-0102655] | 87 | 94 | 78.5
24 | 0 | 0 | 0 | 0 | 0 | O=C(CCl)Nc1ccccc1 [PCM-0102658] | 56.1 | 72 | 67
25 | 0 | 0.63 | 0 | 0 | 0 | Cc1ccc(CNC(=O)CCl)cc1 [PCM-0102660] | 93.6 | 87.4 | 80.3
